Data set [1] has as its system blood mononucleated cells from healthy donor inoculated with MS virion fraction. It counts as cell-based, human.
Data set [2] concerns blood mononucleated cells from healthy donor.

Turning to `Cc1cn([C@H]2C[C@H](N=[N+]=[N-])[C@@H](CO)O2)c(=O)[nH]c1=O` [AZT, azidodeoxythymidine], the “Vβ16 expansion of the lymphocytes (FACS analysis of T subpopulations)” value in data set [1] was “an absence or an inhibition of Vβ16 expansion”. Moreover, in data set [2], the “cell mortality (toxicity tests, compound alone)” value was “no significant cell mortality”.
As to `O=c1[nH]cnc2c1ncn2[C@H]1CC[C@@H](CO)O1` [DDI, dideoxyinosine], in data set [1], the “Vβ16 expansion of the lymphocytes (FACS analysis of T subpopulations)” value is reported as “an absence of Vβ16 expansion”.
